Experimental findings from patent US6495376B1, “Methods and compositions for regulating protein-protein interactions” (Beth Israel Deaconess Medical Center, priority 1999, dated 2002) are described below.

The test system of test [1] is temperature-sensitive ptf1 yeast mutant (YPM2). The test is described as follows: Rescue of temperature-sensitive ptf1 yeast mutant (in vivo function). Particulars: YPM2 cells, restrictive temperature. The test is classed as cell-based. On the procedure:
Given the essential role of the WW-domain in conferring Pin1-binding specificity in vitro, a critical question is whether this domain is important in vivo. To address this question, experiments using the PIN1 yeast homologue, ESS1/PTF1 were performed. ESS1/PTF1 is essential for cell growth and human Pin1 can carry out this essential function when transfected into yeast cells (Lu, K. P. et al., Nature 380:544 (1996); Hanes, S. D. et al., Yeast 5:55 (1989); Hani, J. et al., FEBS Lett. 365:198 (1995)). A temperature-sensitive ptf1 mutant strain, YPM2, grows at the permissive temperature (23° C.), but not at the restrictive temperature (30° C.) (Hanes, S. D. et al., Yeast 5:55 (1989); Hani, J. et al., FEBS Lett. 365:198 (1995)). This phenotype is completely rescued by a 1.5 kb PTF1 genomic fragment, which also contains the promoter and the 3′ processing sequence (FIG. 3). To insure that all human Pin1 proteins were expressed at physiological levels under normal regulation, the coding sequence of the fully functional ESS1/PTF1 gene in a Yepvector was replaced with the coding sequence of the human PIN1 (or Pin1 mutant) cDNA (FIG. 3) and transformed into a temperature-sensitive ptf1 strain. Transformants were selected on minimal media minus Leu at the permissive temperature (23° C.) and protein expression was detected by immunoblotting analysis using 12CA5 monoclonal antibody specific for the HA epitope tag inserted at the N-terminus. […] Those strains expressing similar levels of Pin1 and Pin1 mutants were grown at permissive and nonpermissive temperature.

Test [2] relates to tau-promoted MT assembly. The test is described as follows: Microtubule assembly light-scattering assay (turbidity at 350 nm). The conditions noted are these: 0.05 mg/ml protein, 0.05 mg/ml tau. It is filed as biochemical. On the procedure:
The effect of Pin1 on the ability of phosphorylated tau to promote MT assembly was determined using light-scattering assays (Bramblett, G. T. et al., Neuron 10:1089-1099(1993); Alonso, A. C. et al., Proc Natl Acad Sci USA 91:5562-5566 (1994); Busciglio, J. et al., Neuron 14:879-888 (1995)). Briefly, MTs were assembled from phosphocellulose purified bovine tubulin (Cytoskeleton, Inc) and stabilized by Taxol. The nonphosphorylated or Cdc2 phosphorylated recombinant tau (0.1 mg/ml) was incubated with Pin1 (0.1 mg/ml) at 35° C. for 5 min before adding to the MTs. Bound tau was isolated by centrifugation (50,000×g) at 25° C. for 20 min, followed by immunoblotting analysis using CP27 and Pin1 antibodies. The ability of tau to promote MT assembly was determined using well established light-scattering assays. Briefly, the assembly of MTs was initiated by incubating tubulin (2 mg/ml) with or without tau (0.05 mg/ml) in 80 mM PIPES, pH 6.8, 1 mM EGTA, 1 mM MgCl2, 1 mM GTP, 20% glycerol at 35° C. for 2 min. The mixture was then transferred to a 100 μl cuvet and the rate of the MT assembly was monitored at room temperature using the turbidity increase at 350 nm. To examine the effect of Pin1, Pin1 or its mutant (0.05 mg/ml) was pre-incubated with tau or Cdc2 phosphorylated tau (0.05 mg/ml) at 35° C. for 5 min before the MT assembly assays.

Test [3] deals with neurofibrillary tangles in AD brain sections. The test is described as follows: Binding of recombinant Pin1 added onto brain sections, immunostaining. Particulars: Pin1 at 0.5 μM. Details: species or system human. On the procedure: To further confirm that Pin1 has specific affinity for PHFs, recombinant Pin1 was added onto brain sections, washed, and then subjected to immunostaining using affinity purified Pin1 antibodies to localize bound Pin1. To localization exogenously added Pin1 in brain sections, 50 μm sections were cut from formalin fixed frontal cortex or hippocampus of human brains, endogenous peroxidase activity blocked with H2O2, followed by incubation with Pin1 at 0.5 μM. The sections were incubated with the mAb TG3 or anti-Pin1 antibodies that had been purified using GST-Pin1 glutathione beads, and visualized by the immunoperoxidase staining protocol, to detect endogenous Pin1, fixed brain sections were first microwaved in an antigen retrieval buffer (Biogenex), as described by the manufacturer, then subjected to immunostaining procedure.

Sequence of tau-promoted MT assembly (P10636 45-219 isoform P10636-2 limits assumed): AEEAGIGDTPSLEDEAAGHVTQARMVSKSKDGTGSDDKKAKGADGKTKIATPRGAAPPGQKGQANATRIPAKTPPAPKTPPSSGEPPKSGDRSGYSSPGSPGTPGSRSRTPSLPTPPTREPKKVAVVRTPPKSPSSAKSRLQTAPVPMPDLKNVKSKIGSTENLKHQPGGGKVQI

For the substance “Pin1: wild-type human prolyl isomerase (PPIase) Pin1 with N-terminal WW-domain; tag cleaved in Table 2”, the “complementation of temperature-sensitive ptf1 phenotype (in words)” value in test [1] was “fully complemented the temperature-sensitive phenotype”. Moreover, in test [2], the “effect on ability of Cdc2 phosphorylated tau to promote MT assembly” value is recorded as “restored the ability of Cdc2 phosphorylated tau to promote MT assembly” and the “effect on ability of nonphosphorylated tau to promote MT assembly” value was “no effect”. In addition, in test [3], the “binding in AD brain sections” value was “strongly bound neurofibrillary tangles and neurites”.
